The test relates to Hepatitis B Virus. In words: HBV test system: HBV-DNA content in the supernatant of HBV-DNA-transfected hepatoma cells (HEP G2.2.15), after PEG precipitation, with a non-radioactive HBV genomic DNA probe. Particulars: HepG2.2.15, 50%ige Hemmung der HBV-DNA Konzentration im Überstand, read-out: IC₅₀. The format is cell-based. An excerpt: Der Nachweis wurde in mit Hepatitis B Virus DNA transfizierten Hepatomzellen (HEP G2.2.15) geführt. Die Ergebnisse der unten aufgeführten Beispiele wurden zu dem in der folgenden Literaturangabe [Sells, M.A.; Chen, M.L., Acs, G., Proc. Natl. Acad. Sci. USA S. 1005 - 1009, Vol. 84 (1987] beschriebenen HBV-Testsystem ermittelt: Transfizierte Hepatomzellen (HEP G2.2.15) wurden mit verschiedenen Konzentrationen der jeweiligen Verbindung inkubiert. Durch Behandlung der transfizierten Hepatomzellinie HEP G2.2.15 mit den erfindungsgemäßen Verbindungen konnte die Reduktion der virusspezifischen HBV-DNA im Überstand sowie eine Reduktion des HBsAg Spiegels gezeigt werden. Es wurde weiter gefunden, daß die erfindungsgemäßen Verbindungen zu einer Reduktion der replikativen Intermediate der Hepatitisviren führen. Im Überstand der Zellkulturen wurde nach PEG Fällung der Gehalt an HBV-DNA bestimmt. Dies geschah unter Verwendung einer nicht radioaktiv markierten HBV genomischen DNA Probe [Pauly, P., 1982, Ph. D. Thesis, University of Göttingen, F.R.G.; Köchel et al., 1990, EMBL, Accession-Nr. X 51790]. Gleichzeitig erfolgte der Nachweis der Beeinflussung der HBsAg Bildung mittels eines kommerziell erhältlichen ELISA Tests. Die angegebenen IC₅₀-Werte beziehen sich auf die Substratkonzentrationen, die unter den oben aufgeführten Testbedingungen eine 50%ige Hemmung der HBV-DNA Konzentration im Überstand bewirken. Tabelle A
Gleichzeitig erfolgte die Bestimmung des möglicherweise vorhandenen cytotoxischen Einflusses der erfindungsgemäßen Verbindungen mittels Kristallviolettfärbung bzw. über den Einbau von radioaktiv markiertem Thymidin in die zelluläre DNA.
As to `CCOC(=O)c1cn2c3c(c(F)c(F)cc3c1=O)OC(C(C)(C)CCCOc1ccccc1)=C2` [Beispiel VIII, 9,10-Difluor-2-(2-methyl-5-phenoxy-2-pentyl)-7-oxo-7H-pyrido[1,2,3-de][1,4]-benzoxazin-6-carbonsäureethylester], the IC50 came out at 500 nM.

For `CCOC(=O)C1=Cn2cc(C(=O)OCC)c(=O)c3cc(F)c(F)c(c32)O1` [Beispiel I, 9,10-Difluor-2-ethoxycarbonyl-7-oxo-7H-pyrido[1,2,3-de][1,4]benzoxazin-6-carbonsäureethylester], the IC50 turned out to be 500 nM.

For the molecule `CC1=COc2c(N3CCN(C4CC4)CC3)c(F)cc3c(=O)c(C(=O)O)cn1c23` [Beispiel 9, 10-(4-Cyclopropyl-piperazin-1-yl)-9-fluor-3-methyl-7-oxo-7H-pyrido-[1,2,3-de][1,4]benzoxazin-6-carbonsäure], the IC50 is 100 nM.
